Tests used:
Type in all cases: functional, Homo sapiens
Set-up in all cases: dose or concentration left out as unconfirmed
[1] = test system: Colon cancer organoid; test: Optimized Dual-Glo assay to identify co-culture induced drug vulnerabilities using donated chemical probes and chemogenomics kinase set in O20 CRC organoid and F20 CAF mono and co-culture. […] Cell viability is reported both mono and co-culture models.
[2] = test system: Colon cancer organoid; test: Optimized Dual-Glo assay to identify co-culture induced drug vulnerabilities using donated chemical probes and chemogenomics kinase set in O14 CRC organoid and F14 CAF mono and co-culture. […] Cell viability is reported both mono and co-culture models.
[3] = test system: Colon cancer organoid; test: Optimized Dual-Glo assay to identify co-culture induced drug vulnerabilities using donated chemical probes and chemogenomics kinase set in O06 CRC organoid and F06 CAF mono and co-culture. […] Cell viability is reported both mono and co-culture models.
[4] = Culture type Co-Culture, Transduced with Lucferase2-P2A-EGFP lentivirus
[5] = Culture type Co-Culture, Transduced with Renilla-dsRed lentivirus
[6] = Culture type Mono-Culture, Transduced with Lucferase2-P2A-EGFP lentivirus
[7] = Culture type Mono-Culture, Transduced with Renilla-dsRed lentivirus

SMILES	Cell Viability [1, 4]	Cell Viability [1, 5]	Cell Viability [1, 6]	Cell Viability [1, 7]	Cell Viability [2, 4]	Cell Viability [2, 5]	Cell Viability [2, 6]	Cell Viability [2, 7]	Cell Viability [3, 4]	Cell Viability [3, 5]	Cell Viability [3, 6]	Cell Viability [3, 7]
CC1=C(C#N)C(c2ccc3c(c2)c(NC(=O)c2ccccc2C)nn3C)C(C#N)=C(C)N1 [BAY-974]	105.235%	128.576%	108.1%	107.642%	102.224%	90.7163%	99.5288%	100.218%	97.6295%	94.9804%	90.396%	95.4639%
COc1ccccc1-c1cc(Nc2cccc(CS(N)(=O)=O)c2)ncn1	104.861%	97.4583%	84.7968%	76.3761%	107.839%	92.9577%	111.603%	77.4194%	105.6%	95.8866%	67.576%	79.9168%
O=C(NCC(=O)N1CCCC1)Nc1ccc2cnccc2c1	120.858%	100.064%	123.325%	84.2387%	77.6259%	126.417%	75.4606%	109.537%	80.3687%	124.064%	84.4387%	94.1078%
CC(=O)c1cc(-c2ccccc2OCC2CC2)c2ncccn12	90.8424%	121.201%	99.1369%	90.8457%	80.3991%	93.1948%	108.194%	100.736%	107.249%	181.775%	93.2808%	95.3402%
CN(C)C/C=C/C(=O)Nc1cc2c(Nc3ccc(F)c(Cl)c3)ncnc2cc1O[C@H]1CCOC1.O=C(O)/C=C\C(=O)O.O=C(O)/C=C\C(=O)O [AFATINIB DIMALEATE]	37.5755%	73.123%	10.3381%	31.0858%	29.2387%	54.1607%	5.719%	44.7132%	26.678%	56.3894%	6.9021%	44.0198%
COc1cc2c(cc1OCCCN1CCCC1)N=C(N)C21CCC1	75.7779%	100.254%	68.8586%	68.8682%	71.4641%	82.9559%	58.4791%	57.8128%	84.9948%	83.704%	86.6673%	61.562%
CC(=O)Nc1c(F)cc(C(=O)N[C@H]2CC[C@H](O)CC2)cc1O[C@@H](C)c1ccccc1 [GSK046]	117.929%	118.66%	59.393%	129.379%	94.8329%	149.721%	98.5047%	138.141%	141.493%	157.689%	89.308%	140.24%
Cl.O=C(O)c1cc(-c2ccc(C3CCNCC3)cc2)c2ccc(-c3ccc(C(F)(F)F)cc3)cc2c1	105.826%	101.384%	71.4178%	87.2658%	74.9682%	122.124%	85.098%	99.5367%	107.895%	117.47%	95.8495%	93.2112%
CN([C@@H]1CCc2c(CC(=O)O)c3ccccc3n2C1)S(=O)(=O)c1ccc(F)cc1 [MK-7246]	94.6909%	109.932%	110.185%	99.3239%	76.0592%	112.144%	82.2127%	107.31%	127.259%	149.477%	87.9847%	110.238%
O=C(NNS(=O)(=O)c1ccccc1F)c1cc(F)cc(-c2ccccn2)c1 [WM-1119]	68.3772%	152.012%	102.739%	96.1932%	33.671%	171.323%	39.6176%	103.912%	97.0333%	108.11%	61.3742%	91.757%
CC1(C)C(N)=Nc2cc(OCCCCN3Cc4ccc(OCc5cn(CC(=O)N6CCC(CCN7CCCC7)CC6)nn5)cc4C3)c(OCC3CC3)cc21	70.4635%	125.652%	114.565%	111.957%	75.997%	107.884%	116.341%	106.753%	65.2251%	114.368%	80.2418%	105.711%
C[C@@H]1CCN(C(=O)CC#N)C[C@@H]1N(C)c1ncnc2[nH]ccc12.O=C(O)CC(O)(CC(=O)O)C(=O)O [TOFACITINIB CITRATE]	115.032%	86.9545%	89.5356%	81.856%	119.294%	99.6774%	102.323%	98.8919%	105.115%	91.9737%	115.164%	114.62%
NS(=O)(=O)c1cc(NC(=O)C2(c3ccccc3Cl)CC2)ccc1Oc1cccc(Cl)c1 [BAY-207]	177.814%	111.752%	143.896%	130.032%	108.195%	102.868%	157.597%	122.925%	80.0716%	155.512%	77.1877%	150.163%
COc1cc(C(=O)N2CC[C@@H](O)[C@@H](N)C2)cc2nc(-c3cc4ccccc4n3CC3CC3)n(C)c12.Cl	98.8385%	114.018%	83.2381%	78.6997%	132.512%	122.105%	79.0484%	89.8768%	124.227%	121.721%	98.6493%	122.476%
COc1cc2c(cc1NS(=O)(=O)c1ccc(Br)cc1C)n(C)c(=O)n2C	86.3374%	193.757%	91.9028%	113.163%	78.4023%	92.6515%	95.4962%	108.084%	53.0589%	146.987%	78.5311%	120.075%
CCOC(=O)CCNc1cc(N2CCc3ccccc3CC2)nc(-c2ccccn2)n1	100.893%	127.032%	66.9069%	85.0003%	81.7654%	97.685%	98.6348%	109.679%	103.039%	116.98%	128.06%	112.043%
COc1cc2c(NC3CCN(C(C)C)CC3)nc(N3CCC(F)(F)CC3)nc2cc1OCCCN1CCCC1	136.034%	132.743%	70.3827%	53.0002%	56.1565%	72.4133%	84.8802%	67.5673%	88.0521%	104.162%	44.5913%	47.5732%
Cc1cc2c(-c3ccco3)cnc(N[C@H]3CCN(C)C[C@@H]3C(=O)NC3CCCCC3)c2[nH]c1=O [GSK791]	101.755%	116.18%	85.6153%	75.9377%	95.0265%	100.863%	120.55%	112.529%	113.813%	153.556%	183.923%	92.8694%

From ChEMBL document CHEMBL5674860, “Optimized Dual-Glo Assay to identify co-culture-induced drug vulnerabilities in 3D CRC models” (2024)
